From patent US10501435B2, “Substituted quinazoline compounds and uses thereof for modulating glucocerebrosidase activity” (Northwestern University, priority 2015, dated 2019) come the findings set out here.

Experiment [1] concerns the target T1, wild-type GCase (Homo sapiens (Human), UniProt P04062). Briefly: GCase enzyme activity assay (4MU-β-Glc substrate, no taurocholate). It is filed as biochemical. Particulars: for change of inhibitory activity at pH 5.0 and pH 7.0 compared to pH 5.9: both pH conditions. Here is the method:
In previous studies, high concentrations of taurocholate (4-10 mM) were used to improve the signal in GCase enzyme activity assays^16,27,28. […] Here we describe our modifications of the substituents on the quinazoline ring.
4-Methylumbelliferyl β-D-glucopyranoside (4MU-β-Glc), 4-methylumbelliferyl α-D-glucopyranoside, 4-methylumbelliferyl α-D-galactopyranoside, and buffer components were purchased from Sigma-Aldrich (St. Louis, Mo.). The recombinant wild-type GCase enzyme velaglucerase alfa (Vpriv®, Shire Human Genetic Therapies, Inc.), acid α-glucosidase enzyme alglucosidase alfa (Lumizyme®, Genzyme Corporation), α-galactosidase A enzyme agalsidase beta (Fabrazyme®, Genzyme Corporation) were used in activity assays. […] A solution of 1 M sodium hydroxide and 1 M glycine (pH 10) was used as the stop solution for all three enzyme activity assays.
GCase Enzyme Activity Assay. The compounds in DMSO solution (0.5 μL/well) were transferred to a black 96-well plate (the final titration started from 100 μM, a 12 or 24-point 2-fold dilution series). […] After 5 min of incubation at room temperature, the enzyme reaction was initiated by the addition of blue substrate (4MU-β-Glc) (33 μL/well). The final concentration of the blue substrate was 1.5 mM. The blue substrate reaction was terminated by the addition of 33 μL/well stop solution (1 M NaOH and 1 M glycine mixture, pH 10) after 30 min of incubation at 37° C. […] The selected compounds were further assayed under pH 5.0 and pH 7.0 to evaluate their selectivity under various pH conditions.

The target in another experiment is α-galactosidase A (GLA) (Homo sapiens (Human), UniProt P06280). Put plainly: Enzyme selectivity assay, α-galactosidase A. The class given is biochemical. The note with it: compound treatments up to 100 μM, pH 4.8. From the text: (§1) 4-Methylumbelliferyl β-D-glucopyranoside (4MU-β-Glc), 4-methylumbelliferyl α-D-glucopyranoside, 4-methylumbelliferyl α-D-galactopyranoside, and buffer components were purchased from Sigma-Aldrich (St. Louis, Mo.). The recombinant wild-type GCase enzyme velaglucerase alfa (Vpriv®, Shire Human Genetic Therapies, Inc.), acid α-glucosidase enzyme alglucosidase alfa (Lumizyme®, Genzyme Corporation), α-galactosidase A enzyme agalsidase beta (Fabrazyme®, Genzyme Corporation) were used in activity assays. The GCase activity assay buffer was composed of 50 mM citric acid, 176 mM K2HPO4, and 0.01% Tween-20 at pH5.0, pH 5.9 and pH7.0. A solution of 1 M sodium hydroxide and 1 M glycine (pH 10) was used as the stop solution for all three enzyme activity assays.
Chain of α-galactosidase A (GLA) (P06280 32-429): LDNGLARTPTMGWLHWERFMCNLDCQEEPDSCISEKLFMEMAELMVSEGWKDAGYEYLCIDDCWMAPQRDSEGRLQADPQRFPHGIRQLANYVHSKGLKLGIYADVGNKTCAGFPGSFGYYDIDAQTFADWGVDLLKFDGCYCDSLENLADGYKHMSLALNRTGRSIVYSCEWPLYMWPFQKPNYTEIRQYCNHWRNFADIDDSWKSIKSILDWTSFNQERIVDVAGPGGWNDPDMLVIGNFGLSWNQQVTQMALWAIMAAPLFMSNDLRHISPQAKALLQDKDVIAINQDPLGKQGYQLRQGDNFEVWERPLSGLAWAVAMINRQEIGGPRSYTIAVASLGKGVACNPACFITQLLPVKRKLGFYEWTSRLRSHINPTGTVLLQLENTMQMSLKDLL
(§2) Enzyme Selectivity Assays. The acid α-glucosidase and α-galactosidase A enzyme activity assay methods were similar to the GCase enzyme activity assay above with slight modifications. The buffer for the two enzyme assays consisted of 50 mM citric acid, 176 mM K2HPO4, and 0.01% Tween-20 at pH 4.8. The final enzyme concentrations for acid α-glucosidase and α-galactosidase A were 8 and 1 nM, respectively. The substrate concentrations for these related enzymes were at 0.16 and 0.4 mM, respectively.

The target of experiment [2] is T1, wild-type GCase. Briefly: Fluorescent thermal shift assay. It is filed as binding. The note with it: pH 5.0, 0.5 to 200 μM. From the text: Compounds shown to act as pharmacological chaperones for GCase (or other lysosomal enzymes) also stabilize the enzyme against thermal denaturation. A fluorescent thermal shift assay was developed to evaluate the binding affinity of ligands with protein^30. […] The maximum thermal shift of these compounds corresponded to their inhibitory activity at pH 5.0.
Fluorescence Thermal Shift Analysis^31. A robotic pipeline in the High Throughput Analysis Laboratory (HTAL) was used for protein ligand screening by fluorescence thermal shift (FTS) analysis. The pipeline used a Mosquito robot (TTP Labtech) for protein dispensing and an Echo 550 (Labcyte) to add compounds. Thermal scanning coupled with fluorescence detection was performed on a real-time PCR machine CFX384 (Bio-Rad Laboratories). The assay was run in 384-well PCR plates, using 10 μL citric acid/K2HPO4 buffer (50 mM citric acid, 150 mM K2HPO4, pH 5.0) per well. The assay concentration for protein was 1 μM and that for Sypro Orange (Invitrogen) was 5×. Protein was premixed with Sypro Orange and dispensed to a plate first, and compounds were added. Final concentrations of compounds ranged from 0.5 to 200 μM. Then the plate was sealed with an optical seal, shaken, and centrifuged. The thermal scan was from 10 to 95° C. with a temperature ramp rate of 1.5° C./min. The fluorescence was recorded every 10 sec. Data analysis and report generation were performed using the in-house software excelFTS.

The next experiment concerns the target acid α-glucosidase (GAA) (Homo sapiens (Human), UniProt P10253). Put plainly: Enzyme selectivity assay, acid α-glucosidase. The note with it: compound treatments up to 100 μM, pH 4.8. The class given is biochemical.
Excerpt: as §1, §2

The target of experiment [3] is T2, N370S mutant GCase (Homo sapiens (Human), UniProt P04062, N370S). Put plainly: GCase activity assay in patient N370S fibroblasts. It is filed as cell-based. Particulars: 3-day treatment, activity determined at pH 5.5. As to the method: (§3) N370S Cell Culture and Compound Treatment. The N370S fibroblast cell line was obtained from Coriell, GM00372, cultured in DMEM medium (Life Tech) including 1% v/v L-glutamine 200 mM (Life Tech), 1% v/v pen strep (Life Tech), 10% FBS (Life Tech) at 37° C. and 5% CO2 and treated with different compounds at 0.2 μM and 2 μM. After a 3-day treatment, cells were washed with inhibitor free media 3 times and fed with inhibitor free media for 1 day, followed by 1% Triton X-100 lysis buffer to lyse cells. Protein concentrations were measured with a Bradford kit (Thermo), and the GCase activity was determined at pH 5.5.
T2 sequence (P04062 40-536 N409S): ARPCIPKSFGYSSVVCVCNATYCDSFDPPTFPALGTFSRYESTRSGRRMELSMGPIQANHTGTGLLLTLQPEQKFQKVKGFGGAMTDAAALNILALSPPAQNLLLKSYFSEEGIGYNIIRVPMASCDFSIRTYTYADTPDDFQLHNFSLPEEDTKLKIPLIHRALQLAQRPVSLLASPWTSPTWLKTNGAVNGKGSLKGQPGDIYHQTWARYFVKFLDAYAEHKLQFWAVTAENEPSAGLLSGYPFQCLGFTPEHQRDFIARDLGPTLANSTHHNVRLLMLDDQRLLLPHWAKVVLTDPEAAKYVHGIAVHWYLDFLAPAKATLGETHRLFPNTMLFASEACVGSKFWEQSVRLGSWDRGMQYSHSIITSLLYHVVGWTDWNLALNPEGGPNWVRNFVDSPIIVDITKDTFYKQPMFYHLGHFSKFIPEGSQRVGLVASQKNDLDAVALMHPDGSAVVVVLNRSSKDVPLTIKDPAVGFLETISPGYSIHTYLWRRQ

Experiment [4] addresses T2, N370S mutant GCase. Put plainly: GCase protein levels by Western blot in patient N370S fibroblasts. It is filed as cell-based. Particulars: 3-day treatment, 0.2 μM and 2 μM. Here is the method:
as §3
Western Blot. Proteins were denatured in 20% SDS sample buffer at 100° C. for 10 min; 10% Bis-Tris gel (Life Tech) was used for gels; Trans-Blot Turbo PVDF kit (Bio-Rad) was used for membrane transfer, and Chemidoc MP system (Bio-Rad) was used to analyze the blots.
(In western blotting, separated proteins are transferred to a membrane and probed.)

For another experiment, the target named is GCase (Homo sapiens (Human), UniProt P04062). Briefly: Enzyme kinetic assay (Lineweaver-Burk, resorufin β-D-glucopyranoside). The class given is biochemical. Particulars: substrate 30-150 μM, increasing inhibitor concentrations. Here is the method:
We further tested compounds 4 and 11g by measuring GCase activity at various substrate concentrations (30-150 μM) and in the absence or presence of increasing concentrations of GCase inhibitors.
Enzyme Kinetic Assay. The substrate resorufin β-D-glucopyranoside was diluted to five concentrations, ranging from 30 to 150 μM. Seven concentrations of inhibitors (between 0.5- and 5-fold of IC50 value) and a DMSO control were added to the enzyme solution. The final enzyme concentration was 10 nM to give a linear reaction over 10 min. Enzyme kinetics were measured by the addition of 66 μL of substrate to a 96-well assay plate, followed by 33 μL of enzyme solution (with or without inhibitor) using a dispense module on a Biotek Synergy H1 multi-mode plate reader. The increase in product fluorescence was measured at 1 min intervals for 10 min in the plate reader. The rate of product formation was calculated by converting the fluorescence units to nanomoles of product per minute using a standard curve of the free fluorophore, resorufin.

“Also recorded” adds a separate entry of the source.

T1 sequence (P04062 40-536): as the sequence (P04062 40-536 N409S) above, with S370N counted along it
Chain of GCase (P04062 40-536): as the sequence (P04062 40-536 N409S) above, with S370N counted along it

By IC50 is commonly meant the concentration needed to halve the response being measured. A low value points to higher potency. With `c1cncc(-c2nc(NC3COc4ccccc4C3)c3ccccc3n2)c1` (centres unmarked) [Compound 9f], the IC50 at wild-type GCase [1] (Table 4, pH 5.9, mean ± SD, triplicate) is 35 ± 3 nM.

Turning to `c1cncc(-c2nc(NC3CCc4ccccc43)c3ccccc3n2)c1` (centres unmarked) [Compound 9e], on wild-type GCase [1], the “inhibitory activity against GCase (in words)” value is given as “low micromolar range”.

Regarding `c1cncc(-c2nc(NC3CCc4ccccc4C3)c3ccccc3n2)c1` (single isomer, unassigned) [Compound 9a], the “α-galactosidase A (GLA) activity” value at α-galactosidase A (GLA) is “not significantly changed”. Also, the “stabilization of wild-type GCase / change of GCase melting point” value at wild-type GCase [2] is “stabilize wild-type GCase in a dose-dependent manner; also recorded: increased the GCase melting point in a dose-dependent manner”. Besides, on acid α-glucosidase (GAA), the “acid α-glucosidase (GAA) activity” value was “not significantly changed”.

In the case of `c1ccc2c(c1)CC(Nc1nc(-c3ccsc3)nc3ccccc13)C2` [Compound 11g, N-(2,3-dihydro-1H-inden-2-yl)-2-(thiophen-3-yl)quinazolin-4-amine], at α-galactosidase A (GLA), the “α-galactosidase A (GLA) activity” value is on record as “not significantly changed”. For the same molecule, the “stabilization of wild-type GCase / change of GCase melting point” value on wild-type GCase [2] is on record as “stabilize wild-type GCase in a dose-dependent manner; also recorded: increased the GCase melting point in a dose-dependent manner”. Moreover, the “GCase activity in patient cells” value on N370S mutant GCase [3] is “increased GCase activity”. In addition, on N370S mutant GCase [4], the “concentration of GCase (protein level, Western blot)” value (“concentration of GCase” below) is “significantly increased”. Further, on GCase, the “type of inhibition (Km, Vmax)” value was “linear mixed inhibition”. Also, on acid α-glucosidase (GAA), the “acid α-glucosidase (GAA) activity” value is on record as “not significantly changed”. Moreover, the “change of inhibitory activity at pH 5.0 and pH 7.0 compared to pH 5.9” value at wild-type GCase [1] is given as “only dropped slightly”.

For `c1ccc(Nc2nc(-c3cccnc3)nc3ccccc23)cc1` [Compound 8a], the “stabilization of wild-type GCase / change of GCase melting point” value on wild-type GCase [2] is listed as “did not change the melting points significantly”. Besides, the “inhibitory activity against GCase (in words)” value against wild-type GCase [1] is recorded as “lost activity”.

As to `c1cncc(-c2nc(N[C@@H]3CCc4ccccc4C3)c3ccccc3n2)c1` [Compound 9b], the “stabilization of wild-type GCase / change of GCase melting point” value on wild-type GCase [2] is recorded as “stabilize wild-type GCase in a dose-dependent manner; also recorded: increased the GCase melting point in a dose-dependent manner”. At wild-type GCase [1] (pH 5.0 vs pH 5.9), the “decrease of inhibitory activity at pH 5.0 compared to pH 5.9” value turned out to be 3 fold.

On to `OC[C@H]1CNC[C@@H](O)[C@@H]1O` [IFG, Isofagomine, reference compound], for which the “stabilization of wild-type GCase / change of GCase melting point” value at wild-type GCase [2] is “stabilize wild-type GCase in a dose-dependent manner”. For the same molecule, the “GCase activity in patient cells” value on N370S mutant GCase [3] is listed as “had no effect”. Further, the “concentration of GCase” value on N370S mutant GCase [4] was “did not have an effect”.

As for `c1csc(-c2nc(NC3Cc4ccccc4C3)c3ccccc3n2)c1` [Compound 11f, N-(2,3-dihydro-1H-inden-2-yl)-2-(thiophen-2-yl)quinazolin-4-amine], the “α-galactosidase A (GLA) activity” value on α-galactosidase A (GLA) is listed as “not significantly changed”. Besides, the “stabilization of wild-type GCase / change of GCase melting point” value on wild-type GCase [2] is reported as “stabilize wild-type GCase in a dose-dependent manner; also recorded: increased the GCase melting point in a dose-dependent manner”. At N370S mutant GCase [4], the “concentration of GCase” value is listed as “significantly increased”. Also, the “acid α-glucosidase (GAA) activity” value on acid α-glucosidase (GAA) was “not significantly changed”. In addition, the “change of inhibitory activity at pH 5.0 and pH 7.0 compared to pH 5.9” value at wild-type GCase [1] is reported as “only dropped slightly”.

In the case of `c1ccc(-c2nc(NC3Cc4ccccc4C3)c3ccccc3n2)cc1` [Compound 11d, N-(2,3-dihydro-1H-inden-2-yl)-2-phenylquinazolin-4-amine], on α-galactosidase A (GLA), the “α-galactosidase A (GLA) activity” value is on record as “not significantly changed”. Moreover, the “stabilization of wild-type GCase / change of GCase melting point” value at wild-type GCase [2] is reported as “stabilize wild-type GCase in a dose-dependent manner; also recorded: increased the GCase melting point in a dose-dependent manner”. Moreover, the “concentration of GCase” value on N370S mutant GCase [4] is given as “significantly increased”. In addition, on acid α-glucosidase (GAA), the “acid α-glucosidase (GAA) activity” value was “not significantly changed”.

As for `c1cncc(-c2nc(NC3CCCc4ccccc43)c3ccccc3n2)c1` (centres unmarked) [Compound 9d], the “inhibitory activity against GCase (in words)” value at wild-type GCase [1] was “low micromolar range”.
